This note sets out measurements from US20210276960A1, “INHIBITORS OF TISSUE TRANSGLUTAMINASE 2 (TG2) AND USES THEREOF” (Northwestern University, priority 2020, published 2021).

The nature of data set [1]: Pharmacokinetic assessment. In kind it is in vivo, mice. The following applies: for AUC0-∞ / Cl/F / cmax / t1/2 / tmax: 17.46 mg/Kg. From the text:
Experiment 2: Pharmacokinetic (PK) assessment. PK studies using the highest safe dose will be conducted on lead compounds that were functionally validated and for which a single dose NOAEL could be established (Aim 3A). These will be carried out by the Sanford Burnham Pharmacology Core (see attached LOS). While ip dosing may not be the preferred route of administration for an eventual cancer drug, these studies using ip dosing will give us data on many PK parameters, including bioavailability, which will be useful in prioritizing and triaging optimized compounds for testing using other routes, e.g., oral. PK parameters will be determined including Cmax (maximum plasma concentration), Tmax (time point of maximum concentration), VdSS (volume of distribution at steady-state), ClE (elimination clearance), AUC (area under the curve) t, (elimination half-life), and oral bioavailability (% F) will be obtained (with the inclusion of an i.v. dosed cohort). […] Our goal will be to identify a compound that has a plasma AUC >5× its cell viability EC50, a t1-2>2 hrs, and low-to-moderate clearance. […] Toxicology and pathology measures will be performed only after anti-tumor activity of lead SMIs will be determined, if compounds are found worthy of detailed study (Expt #3). This approach will maximize use of animals and resources. In brief, peripheral blood counts will be obtained; selected organs and tissues (lung, heart, liver, kidney, colon, bone marrow) will be harvested. Bone marrow cellularity and colony formation assay will be determined.

Data set [2] deals with T1, His-tagged TG2 / biotinylated FN42 interaction (Homo sapiens, UniProt P21980).
T1 construct: made in house
T1 sequence (P21980 1-687): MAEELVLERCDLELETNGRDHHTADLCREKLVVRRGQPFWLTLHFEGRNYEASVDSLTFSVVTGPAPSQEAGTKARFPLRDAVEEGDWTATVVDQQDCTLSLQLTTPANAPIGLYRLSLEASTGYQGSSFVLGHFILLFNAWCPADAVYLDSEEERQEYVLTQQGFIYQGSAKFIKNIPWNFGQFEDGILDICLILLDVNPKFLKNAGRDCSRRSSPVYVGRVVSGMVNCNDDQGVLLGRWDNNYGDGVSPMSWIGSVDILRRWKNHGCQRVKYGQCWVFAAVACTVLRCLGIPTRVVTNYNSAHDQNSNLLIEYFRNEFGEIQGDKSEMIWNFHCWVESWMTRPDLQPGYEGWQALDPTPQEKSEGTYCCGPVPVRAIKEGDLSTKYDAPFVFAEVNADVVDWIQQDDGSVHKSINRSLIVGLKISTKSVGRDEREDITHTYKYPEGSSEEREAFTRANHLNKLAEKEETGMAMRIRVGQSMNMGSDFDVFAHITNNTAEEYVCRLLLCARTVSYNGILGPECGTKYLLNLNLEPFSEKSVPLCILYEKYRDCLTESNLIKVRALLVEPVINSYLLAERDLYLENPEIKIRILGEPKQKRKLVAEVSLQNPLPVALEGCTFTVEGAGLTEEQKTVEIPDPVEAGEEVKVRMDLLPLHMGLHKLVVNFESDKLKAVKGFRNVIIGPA
Kind of data set: ELISA of the TG2-FN interaction. In kind it is binding. How it is done:
Confirmation using ELISA: An independent ELISA validated inhibition of TG2/FN complex formation by SMIs^11. The ELISA assay measured the binding between His6-TG2 captured to the wells by anti-His antibodies and biotinylated FN42 detectable with streptavidin-HRP (FIG. 12A). […] Selected compounds (at concentrations between 5 and 10 μM) inhibited the ELISA signal by 29.7% to 69.5%^11.
ELISA measured the interaction between recombinant His tagged TG2 (rTG2-His) and the biotinylated 42 kD fragment of FN (FN42) which were expressed and purified, as previously described (Yakubov et al., 2014). Briefly, a mixture of 10 nMrTG2-His and selected SMIs or DMSO was added to 96 well plates pre-coated with monoclonal anti-His antibody (Roche, Indianapolis, Ind.; 1:6000). The mixture was incubated for 1 h at RT with 5 nM biotinylated FN42. After washing, wells were incubated with streptavidin-HRP (Cell Signaling, #3999; 1:2000). The reaction was developed with 3,3′,5,5′tetramethylbenzidine (TMB) substrate (BD Biosciences, #555214) and the optical density at […] was measured by using a BioTek microplate reader (Winooski, Vt., USA). Data shown are means±SEM of two independent experiments (n=6).
(In general: In an ELISA, binding on a coated surface is turned into a signal by an enzyme label.)

For a further data set, the system named is OVCAR5 cells. In words: Sphere forming assay after priming, with paclitaxel. Format: cell-based, human. The following applies: priming with 1 μM, with 5 nM PTX. The protocol: After 72 h priming with either 1 μM MT-4, TG53 or vehicle (DMSO), 150 OVCAR5 cells were seeded in 60 mm dishes and treated or not with paclitaxel (PTX, Sigma). Colonies were allowed to form over 10 days, fixed in 4% PFA and stained with 0.4% crystal violet (MP Biomedicals). Colonies were counted, and analysis was performed using the ImageJ software ([…]).Spheroid cultures were carried out as previously described(Condello et al., 2015). Briefly, OC cells were resuspended in Mammocult complete medium (StemCell Technologies) supplemented with Mammocult Proliferation Supplements, heparin and hydrocortisone (StemCell Technologies) and seeded at a concentration of 10,000 cells/well in 96-well ultra-low attachment plates (Corning, Corning, N.Y., USA). After treatment with DMSO (control) or TG53 (1 μM) for 7 days, spheroids were counted and quantified by the CCK-8 assay. All assays were performed in four replicates and were repeated. For priming before PTX treatment, cells were manipulated as described for CFU assay and then seeded in 6-well low-attachment plate (Corning, #3473) at 7000 cells/mL/well and allowed to form spheroids in complete Mammocult media. Spheres were counted after ten days from 4 replicate wells. Two independent experiments were performed.

Experimental for Tolerability in vivo: Three doses were administered 25, 50 and 100 mg/kg to cohorts of 3 mice. A) Average weights, B) average white blood cell counts (WBC), C) average hemoglobin (Hgb) and D) average platelet (Plt) counts measured 1 week after administration at the 3 doses (n=3).

Consider `COc1ccc(Cl)cc1C(=O)Nc1ccc(Nc2nc(C)cc(N(C)C)n2)cc1` [TG53], for which, in data set [1] (IV), the “AUC0-∞” value worked out at 2913 ng·h/mL, the Cl/F worked out at 0.12 L/h, the cmax came to 4045 ng/mL and the t1/2 was 3.4 h. In data set [1] (IV), this compound registered a tmax of 0 h. Besides, in data set [1] (i.p.), the “AUC0-∞” value is 1212 ng·h/mL, the Cl/F came out at 0.29 L/h, the cmax turned out to be 1313 ng/mL and the t1/2 was determined as 19.5 h. Further, in data set [1] (i.p.), the tmax stood at 0.5 h. In addition, in data set [1] (ip administration), the t/2 was found to be 19.5 h. In data set [1] (iv administration), this compound yielded a t/2 of 3.4 h. The hematological toxicity entry in the data set “Tolerability in vivo” (WBC, Hgb, Plt 1 week after administration) is given as “did not induce”. The tolerated dose result in the data set “Tolerability in vivo” (doses 25, 50 and 100 mg/kg) was “up to 50 mg/kg”. Further, the “binding mode (Lineweaver-Burk plot analysis)” value in data set [2] is listed as “competes for the same binding site in TG2 as FN42”. The “inhibition of ELISA signal” value in data set [2] (5 μM) is on record as 65%. Further, the Ki (commonly a dissociation constant, usually derived from enzyme kinetics or from competition with a known ligand) in data set [2] (saturation curves of FN42 with increasing TG53, read-out: inhibition constant Ki) was found to be 4.15 µM.
In the case of `Cc1cc(N(C)C)nc(Nc2ccc(NC(=O)Cc3ccccc3)cc2)n1` [MT-4], in data set [2] (10 μM), the “inhibition of rTG2-FN42 interaction relative to TG53” value is on record as “slightly more potently than TG53”. For the same compound, the “cell proliferation as spheres” value in the data set on OVCAR5 cells is “more potently than PTX alone or PTX and TG53”.
